Assay results from the supplement of paper PMC10307832.

Experiments:
Assay in all cases: relative viability (nuclei count vs DMSO), 5 days (fraction); higher = more cells survive
[1] = compound: CC(C)C[C@H](NC(=O)[C@H](Cc1ccccc1)NC(=O)c1cnccn1)B(O)O [Bortezomib] + N=C(N)NC(=N)NCCc1ccccc1 [Phenformin] (partner 250 µM)
How it was run: (§1)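 Relative viability divides the nuclei count in treated wells by that in vehicle wells. Lung cancer cell lines were seeded in 1536-well plates, dosed by pin tool the next day, and fixed and stained after 5 days in one step with final 0.05% Triton X-100, 1% formaldehyde and 1 ug/ml Hoechst. Dosing was a single drug or a fixed anchor-drug dose plus five library-drug doses (not always all listed) in √10 steps, and values are medians of duplicate plates imaged at 4×.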

[2] = compound: COC1=CC(c2cc3ccccc3[nH]2)=N/C1=C\c1[nH]c(C)cc1C [Obatoclax] + CC(C)C[C@H](NC(=O)[C@H](Cc1ccccc1)NC(=O)c1cnccn1)B(O)O [Bortezomib] (partner 0.002 µM)
How it was run: as §1

[3] = compound: COC1=CC(c2cc3ccccc3[nH]2)=N/C1=C\c1[nH]c(C)cc1C [Obatoclax] + Nc1nc2[nH]cc(CCc3ccc(C(=O)N[C@@H](CCC(=O)O)C(=O)O)cc3)c2c(=O)[nH]1 [Pemetrexed] (partner 0.2 µM)
How it was run: as §1

[4] = compound: CC1=CC(=NN1)NC2=CC(=NC(=N2)/C=C/C3=CC=CC=C3)N4CCN(CC4)C + O=C(c1cc(Cc2n[nH]c(=O)c3ccccc23)ccc1F)N1CCN(C(=O)C2CC2)CC1 [Olaparib] (partner 8 µM)
How it was run: as §1

Cell Line	relative viability ([1]; first compound 0.0002 µM)	relative viability ([1]; first compound 0.000632 µM)	relative viability ([1]; first compound 0.002 µM)	relative viability ([1]; first compound 0.006325 µM)	relative viability ([1]; first compound 0.02 µM)	relative viability ([2]; first compound 0.01 µM)	relative viability ([2]; first compound 0.03162 µM)	relative viability ([2]; first compound 0.1 µM)	relative viability ([2]; first compound 0.3162 µM)	relative viability ([2]; first compound 1 µM)	relative viability ([3]; first compound 0.01 µM)	relative viability ([3]; first compound 0.03162 µM)	relative viability ([3]; first compound 0.1 µM)	relative viability ([3]; first compound 0.3162 µM)	relative viability ([3]; first compound 1 µM)	relative viability ([4]; first compound 0.08 µM)	relative viability ([4]; first compound 0.253 µM)	relative viability ([4]; first compound 0.8 µM)	relative viability ([4]; first compound 2.53 µM)	relative viability ([4]; first compound 8 µM)
HCC-44	0.195	0.194	0.204	0.162	0.111	0.861	0.836	0.822	0.769	0.386	0.64	0.648	0.589	0.627	0.652	0.974	1.01	0.956	0.965	0.759
HCC-78	0.699	0.641	0.676	0.712	0.364	0.539	0.402	0.718	0.456	0.743	0.858	0.898	0.777	0.887	0.897	0.732	0.902	0.903	0.673	0.29
HCC-366	0.621	0.542	0.629	0.578	0.0354	1.06	1	1.08	0.88	1.04	0.152	0.172	0.114	0.223	0.309	0.332	0.39	0.24	0.0237	0.0171
HCC-827	0.428	0.379	0.442	0.192	0.101	0.928	0.861	0.821	0.855	1.04	0.241	0.275	0.247	0.17	0.278	0.605	0.622	0.708	0.62	0.263
HOP-62	0.661	0.625	0.54	0.151	0.0609	0.909	0.787	0.639	0.739	0.719	0.279	0.377	0.329	0.424	0.358	0.366	0.521	0.436	0.395	0.194
LC-2-ad	0.686	0.507	0.557	0.19	0.146	0.979	0.98	0.98	0.785	0.339	0.268	0.285	0.261	0.264	0.285	0.692	0.687	0.704	0.471	0.164
LCLC-97TM1	0.426	0.403	0.433	0.257	0.159	0.735	0.449	0.439	0.619	0.213	0.171	0.188	0.18	0.178	0.161	0.258	0.565	0.323	0.214	0.0672
LCLC-103H	0.361	0.32	0.299	0.178	0.135	1.01	1	0.992	1.07	1.05	0.461	0.487	0.379	0.519	0.528	0.775	0.846	0.716	0.668	0.481
LOU-NH91	0.774	0.645	0.661	0.282	0.261	0.531	0.435	–	0.367	0.441	0.334	0.382	0.323	0.379	0.47	0.871	0.958	0.926	0.875	0.385
LU99A	0.789	0.782	0.898	0.85	0.328	1.12	1.13	1.03	0.357	0.224	0.16	0.172	–	0.183	0.18	0.275	0.244	0.266	0.182	0.103
LXF-289	0.556	0.507	0.483	0.076	0.0724	1.01	1.01	0.999	0.958	0.847	0.847	0.907	0.835	0.94	0.854	1.05	1.04	0.87	0.411	0.055
NCI-H23	0.79	0.652	0.785	0.277	0.114	1.03	0.873	1.13	0.804	0.762	0.665	0.636	0.717	0.561	0.468	0.303	0.325	0.224	0.134	0.108
NCI-H322M	0.807	–	0.748	0.295	0.322	1.13	1.21	1.41	1.16	1.34	0.683	0.609	0.632	0.655	0.625	0.662	0.762	0.742	0.486	0.281
NCI-H441	0.969	0.732	0.514	0.166	0.189	0.378	0.498	0.413	0.291	0.22	0.231	0.217	0.27	0.244	0.269	0.569	0.55	0.503	0.401	0.116
NCI-H460	0.347	0.526	0.554	0.0373	0.0212	1.01	1.19	0.945	0.0492	0.0392	0.0642	0.0576	0.0607	0.0693	0.0648	0.38	0.362	0.427	0.147	0.025
NCI-H520	0.599	0.669	0.422	0.213	0.17	0.664	0.525	0.562	0.299	0.264	0.657	0.714	0.656	0.643	0.249	0.3	0.332	0.307	0.152	0.104

Cell Line	relative viability ([1]; first compound 0.0002 µM)	relative viability ([1]; first compound 0.000632 µM)	relative viability ([1]; first compound 0.002 µM)	relative viability ([1]; first compound 0.006325 µM)	relative viability ([1]; first compound 0.02 µM)	relative viability ([2]; first compound 0.01 µM)	relative viability ([2]; first compound 0.03162 µM)	relative viability ([2]; first compound 0.1 µM)	relative viability ([2]; first compound 0.3162 µM)	relative viability ([2]; first compound 1 µM)	relative viability ([3]; first compound 0.01 µM)	relative viability ([3]; first compound 0.03162 µM)	relative viability ([3]; first compound 0.1 µM)	relative viability ([3]; first compound 0.3162 µM)	relative viability ([3]; first compound 1 µM)	relative viability ([4]; first compound 0.08 µM)	relative viability ([4]; first compound 0.253 µM)	relative viability ([4]; first compound 0.8 µM)	relative viability ([4]; first compound 2.53 µM)	relative viability ([4]; first compound 8 µM)
NCI-H596	0.737	0.474	0.828	0.267	0.211	1.12	0.974	0.812	0.696	0.674	0.516	0.504	0.459	0.467	0.429	0.729	0.607	0.601	0.412	0.24
NCI-H647	0.479	0.444	0.267	0.0466	0.0232	0.902	0.853	0.541	0.351	0.143	0.207	0.164	0.19	0.144	0.116	0.524	0.521	0.493	0.0425	0.0194
NCI-H661	0.286	0.292	0.302	0.239	0.204	0.805	0.704	0.865	0.843	0.786	0.883	0.975	0.933	0.874	0.848	0.658	0.826	0.752	0.424	0.275
NCI-H838	0.6	0.526	0.64	0.127	0.115	1.01	0.748	0.495	0.754	0.404	0.237	0.247	0.233	0.223	0.198	0.752	0.749	0.564	0.139	0.0822
NCI-H1355	0.446	0.414	0.493	0.381	0.176	1.23	1.11	1.09	1.06	1.21	1.05	0.994	1.06	1	0.966	0.707	0.813	0.69	0.324	0.113
NCI-H1437	0.385	0.28	0.278	0.129	0.133	0.463	0.421	0.477	0.438	0.358	0.305	0.344	0.324	0.307	0.319	0.603	0.664	0.631	0.416	0.138
NCI-H1650	0.385	0.303	0.139	0.16	0.149	0.208	0.198	0.196	0.19	0.197	0.397	0.356	0.361	0.377	0.331	0.831	0.831	0.764	0.748	0.0952
NCI-H1651	0.354	0.312	0.229	0.101	0.106	0.901	0.855	0.858	0.943	0.992	0.591	0.439	0.528	0.373	0.603	0.177	0.189	0.176	0.166	0.135
NCI-H1666	0.533	0.544	0.559	0.365	0.307	0.863	0.815	0.979	0.348	0.35	0.835	0.775	0.823	0.725	0.633	0.748	0.7	0.767	0.741	0.501
NCI-H1734	0.454	0.37	0.356	0.155	0.105	0.928	0.818	–	0.914	0.836	0.419	0.427	0.359	0.415	0.364	0.562	0.645	0.554	0.408	0.118
NCI-H1755	0.683	0.596	0.592	0.23	0.229	0.926	0.937	0.805	0.949	0.967	0.444	0.612	0.433	0.413	0.452	0.877	0.89	0.856	0.514	0.253
NCI-H1792	0.534	–	0.173	0.0935	0.0823	0.992	0.926	–	0.917	0.975	0.909	0.58	0.459	0.799	0.386	0.437	0.501	0.431	0.374	0.031
NCI-H1915	0.361	0.356	0.371	0.147	0.0571	1.05	0.748	0.93	1.01	0.975	0.486	0.496	0.482	0.535	0.517	0.256	0.255	0.262	0.223	0.126
NCI-H1975	0.405	0.35	0.115	0.0978	0.106	0.357	0.456	0.361	0.49	0.253	0.298	0.297	0.3	0.309	0.208	0.75	0.842	0.726	0.389	0.115
NCI-H1993	0.489	0.458	0.512	0.419	0.464	1.2	1.05	1.22	1.2	1.2	0.593	0.544	0.727	0.545	0.346	1.01	1.24	0.894	0.829	0.419
NCI-H2009	0.512	0.479	0.492	0.113	0.0828	1.01	1.12	0.764	0.395	0.203	0.978	1.05	0.974	0.993	0.471	0.657	0.746	0.691	0.811	0.324
